SMILES strings stand for the structures. Counter-ions that a name gives are not always drawn.

Common to all, as to format: biochemical
Experiment [1] deals with T1, Recombinant Human Anaplastic Lymphoma Kinase (Homo sapiens, UniProt Q9UM73).
T1 construct: purchased Invitrogen, Carlsbad, Calif
In words: ALK HTRF kinase assay. The following applies: compound at 500 nM or 1 mM; 90 μM ATP. An outline of the steps:
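Kinase activity of the recombinant human protein is measured on a biotinylated peptide, with a Eu-W1024 anti-phosphotyrosine antibody and streptavidin-allophycocyanin generating the homogeneous time-resolved fluorescence signal. Inhibition curves are fitted to yield IC50.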

Experiment [2] has as its target T2, human JAK3 (a.a. 781-1124) (Homo sapiens, UniProt P52333).
T2 construct: JAK3 (a.a. 781-1124); His tag (N); made in house; host or cells: insect cells (baculovirus)
In words: In vitro JAK kinase assay (HTRF, phosphorylation of a biotinylated peptide), JAK3. Particulars: method AA1 (3 μM ATP) or AA2 (1000 μM ATP), not stated per value. A digest of the protocol: (§1)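 Phosphorylation of a biotinylated peptide by the JAK kinase domain, detected by HTRF with Eu-Py20 and SA-APC. ATP was 90 μM for JAK1, 30 μM for JAK2 and 3 μM for JAK3. Reactions ran 1 h at room temperature and were stopped with EDTA, followed by 40 min antibody binding.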

Experiment [3] concerns the target T3, human JAK2 (a.a. 828-1132) (Homo sapiens, UniProt O60674).
T3 construct: JAK2 (a.a. 828-1132); His tag (N); made in house; host or cells: insect cells (baculovirus)
In words: In vitro JAK kinase assay (HTRF, phosphorylation of a biotinylated peptide), JAK2. The following applies: method AA1 (30 μM ATP) or AA2 (1000 μM ATP), not stated per value. An outline of the steps: as §1

The target in the next experiment is TYK2 (Homo sapiens, UniProt P29597). In words: TYK2 kinase inhibition (Table A1).
In experiment [4] the target is T4, human JAK1 (a.a. 837-1142) (Homo sapiens, UniProt P23458).
T4 construct: human JAK1 (a.a. 837-1142); His tag (N); made in house; host or cells: insect cells (baculovirus)
In words: In vitro JAK kinase assay (HTRF, phosphorylation of a biotinylated peptide), JAK1. Particulars: method AA1 (90 μM ATP) or AA2 (1000 μM ATP), not stated per value; read-out: JAK1 IC50. A digest of the protocol:
as §1

Sequence of TYK2 (P29597 whole entry): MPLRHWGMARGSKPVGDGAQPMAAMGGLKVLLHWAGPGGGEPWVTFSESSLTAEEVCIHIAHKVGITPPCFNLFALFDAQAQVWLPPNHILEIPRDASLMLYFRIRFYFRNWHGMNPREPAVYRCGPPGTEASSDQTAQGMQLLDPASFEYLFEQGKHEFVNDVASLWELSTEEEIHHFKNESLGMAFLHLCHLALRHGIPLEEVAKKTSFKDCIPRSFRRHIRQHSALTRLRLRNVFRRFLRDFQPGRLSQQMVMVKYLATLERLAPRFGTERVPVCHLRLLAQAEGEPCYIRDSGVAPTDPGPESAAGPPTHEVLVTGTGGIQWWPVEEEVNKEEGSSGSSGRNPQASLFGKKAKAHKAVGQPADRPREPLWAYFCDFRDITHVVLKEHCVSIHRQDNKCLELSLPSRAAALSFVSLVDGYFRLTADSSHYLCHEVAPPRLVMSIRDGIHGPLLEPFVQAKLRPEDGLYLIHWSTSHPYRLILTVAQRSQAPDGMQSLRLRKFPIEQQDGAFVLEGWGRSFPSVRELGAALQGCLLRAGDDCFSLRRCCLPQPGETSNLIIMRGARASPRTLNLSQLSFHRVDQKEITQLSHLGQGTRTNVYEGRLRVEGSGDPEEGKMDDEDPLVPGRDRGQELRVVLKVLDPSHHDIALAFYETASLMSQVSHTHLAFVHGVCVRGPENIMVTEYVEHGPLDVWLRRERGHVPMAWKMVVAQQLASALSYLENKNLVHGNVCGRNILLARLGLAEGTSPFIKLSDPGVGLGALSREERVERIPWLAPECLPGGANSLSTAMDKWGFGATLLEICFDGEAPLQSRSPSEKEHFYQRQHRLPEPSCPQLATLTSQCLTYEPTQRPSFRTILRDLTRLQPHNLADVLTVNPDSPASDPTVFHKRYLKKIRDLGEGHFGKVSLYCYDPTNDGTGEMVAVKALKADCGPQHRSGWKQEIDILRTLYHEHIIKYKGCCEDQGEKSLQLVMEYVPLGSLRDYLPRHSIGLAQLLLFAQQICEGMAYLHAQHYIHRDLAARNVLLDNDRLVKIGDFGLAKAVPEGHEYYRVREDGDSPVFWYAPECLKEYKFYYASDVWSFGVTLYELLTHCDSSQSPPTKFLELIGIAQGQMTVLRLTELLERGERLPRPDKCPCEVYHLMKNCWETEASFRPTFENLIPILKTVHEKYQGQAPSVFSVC
T2 sequence (P52333 781-1124): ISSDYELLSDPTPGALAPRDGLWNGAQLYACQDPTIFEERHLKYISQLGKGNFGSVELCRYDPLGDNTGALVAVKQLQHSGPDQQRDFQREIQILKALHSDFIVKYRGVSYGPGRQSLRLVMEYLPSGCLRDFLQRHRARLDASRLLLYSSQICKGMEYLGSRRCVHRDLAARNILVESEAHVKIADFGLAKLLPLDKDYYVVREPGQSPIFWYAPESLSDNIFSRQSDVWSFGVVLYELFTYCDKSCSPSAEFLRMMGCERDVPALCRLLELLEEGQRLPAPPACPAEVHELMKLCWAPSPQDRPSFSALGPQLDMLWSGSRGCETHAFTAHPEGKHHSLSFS
T3 sequence (O60674 828-1132): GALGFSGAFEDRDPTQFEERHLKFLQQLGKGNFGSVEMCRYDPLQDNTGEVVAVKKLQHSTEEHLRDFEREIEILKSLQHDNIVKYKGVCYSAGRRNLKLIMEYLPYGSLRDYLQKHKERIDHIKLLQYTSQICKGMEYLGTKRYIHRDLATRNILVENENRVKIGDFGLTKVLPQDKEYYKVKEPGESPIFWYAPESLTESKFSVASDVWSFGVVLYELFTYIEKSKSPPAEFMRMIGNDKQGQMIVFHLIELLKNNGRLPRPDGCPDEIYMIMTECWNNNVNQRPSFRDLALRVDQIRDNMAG
T1 sequence (Q9UM73 19-1620): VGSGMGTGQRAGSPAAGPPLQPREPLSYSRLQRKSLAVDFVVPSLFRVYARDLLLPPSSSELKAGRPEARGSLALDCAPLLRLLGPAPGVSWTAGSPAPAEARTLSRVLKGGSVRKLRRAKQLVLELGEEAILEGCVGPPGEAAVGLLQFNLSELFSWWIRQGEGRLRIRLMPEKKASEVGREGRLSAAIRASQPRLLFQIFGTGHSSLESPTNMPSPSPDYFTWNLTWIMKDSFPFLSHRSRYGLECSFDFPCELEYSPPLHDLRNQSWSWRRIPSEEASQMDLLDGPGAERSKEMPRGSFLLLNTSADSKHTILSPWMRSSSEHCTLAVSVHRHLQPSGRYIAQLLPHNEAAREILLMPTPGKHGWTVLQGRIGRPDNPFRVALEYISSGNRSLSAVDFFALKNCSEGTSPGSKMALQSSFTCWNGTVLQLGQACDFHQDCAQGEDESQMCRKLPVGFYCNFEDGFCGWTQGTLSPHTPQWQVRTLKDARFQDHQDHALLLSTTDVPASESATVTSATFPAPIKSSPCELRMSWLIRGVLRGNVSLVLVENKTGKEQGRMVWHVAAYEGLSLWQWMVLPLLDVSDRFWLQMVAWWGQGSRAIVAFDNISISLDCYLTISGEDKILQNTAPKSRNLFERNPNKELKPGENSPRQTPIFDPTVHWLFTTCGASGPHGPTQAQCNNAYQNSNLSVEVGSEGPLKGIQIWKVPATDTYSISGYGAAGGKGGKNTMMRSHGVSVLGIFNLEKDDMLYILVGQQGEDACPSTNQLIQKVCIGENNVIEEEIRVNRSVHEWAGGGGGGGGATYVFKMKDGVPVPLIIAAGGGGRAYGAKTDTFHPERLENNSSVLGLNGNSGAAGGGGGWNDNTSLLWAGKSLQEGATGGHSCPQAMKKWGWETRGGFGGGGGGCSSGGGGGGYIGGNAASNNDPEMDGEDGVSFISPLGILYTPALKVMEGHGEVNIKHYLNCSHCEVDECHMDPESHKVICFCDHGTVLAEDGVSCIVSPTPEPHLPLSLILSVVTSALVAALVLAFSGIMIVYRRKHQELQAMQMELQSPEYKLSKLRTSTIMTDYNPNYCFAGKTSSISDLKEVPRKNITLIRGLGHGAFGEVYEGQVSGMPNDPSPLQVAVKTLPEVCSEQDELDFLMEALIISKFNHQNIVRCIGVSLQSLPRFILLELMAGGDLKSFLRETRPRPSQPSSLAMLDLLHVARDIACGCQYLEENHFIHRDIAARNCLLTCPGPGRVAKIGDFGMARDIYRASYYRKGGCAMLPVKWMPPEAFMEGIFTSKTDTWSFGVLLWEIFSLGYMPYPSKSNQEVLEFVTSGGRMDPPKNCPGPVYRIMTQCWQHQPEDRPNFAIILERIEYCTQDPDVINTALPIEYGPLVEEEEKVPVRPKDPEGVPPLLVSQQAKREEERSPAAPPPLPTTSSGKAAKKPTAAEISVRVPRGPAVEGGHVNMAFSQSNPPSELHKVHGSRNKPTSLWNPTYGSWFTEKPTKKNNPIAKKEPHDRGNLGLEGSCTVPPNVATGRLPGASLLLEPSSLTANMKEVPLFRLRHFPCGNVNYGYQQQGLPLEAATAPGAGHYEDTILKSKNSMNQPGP
T4 sequence (P23458 849-1154): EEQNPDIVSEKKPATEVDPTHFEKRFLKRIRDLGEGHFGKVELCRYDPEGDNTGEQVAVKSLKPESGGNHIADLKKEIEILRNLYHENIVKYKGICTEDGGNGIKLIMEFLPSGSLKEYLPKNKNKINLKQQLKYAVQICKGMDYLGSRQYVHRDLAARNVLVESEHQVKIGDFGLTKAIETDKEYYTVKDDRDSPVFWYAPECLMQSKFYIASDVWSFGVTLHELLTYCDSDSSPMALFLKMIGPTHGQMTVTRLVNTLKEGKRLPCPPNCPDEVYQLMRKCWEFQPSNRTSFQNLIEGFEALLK

Turning to `COc1cccc(NC(=O)N2CCC(C(=O)Nc3ccc4cc3CCc3cccc(c3)Nc3ncc(Cl)c(n3)N4)CC2)c1` [Example A38, N(4)-[6-Chloro-2,4,8,22-tetraazatetracyclo[14.3.1.1(3,7).1(9,13)]docosa-1(20),3(22),4,6,9(21),10,12,16,18-nonaen-12-yl]-N(1)-(3-methoxyphenyl)piperidine-1,4-dicarboxamide trifluoroacetate], in experiment [1], the “ALK % of inhibition at a concentration of 500 nM or 1 mM” value (from here on “ALK % of inhibition”) is on record as 55%. Besides, the half-maximal inhibitory concentration (IC50) stood at 46 nM in experiment [2], 16 nM in experiment [3], 48 nM on TYK2 and 6.6 nM in experiment [4].
The matching figures for `CSc1ccccc1NC(=O)N1CCC(C(=O)Nc2ccc3cc2CCc2cccc(c2)Nc2ncc(Cl)c(n2)N3)CC1` [Example A39, N(4)-[6-Chloro-2,4,8,22-tetraazatetracyclo[14.3.1.1(3,7).1(9,13)]docosa-1(20),3(22),4,6,9(21),10,12,16,18-nonaen-12-yl]-N(1)-[2-(methylthio)phenyl]piperidine-1,4-dicarboxamide trifluoroacetate]: 39%, 66 nM, 36 nM, 77 nM and 19 nM.
The matching figures for `Cn1ccc2c(NC(=O)N3CCC(C(=O)Nc4ccc5cc4CCc4cccc(c4)Nc4ncc(Cl)c(n4)N5)CC3)cccc21` [Example A41, N(4)-[6-Chloro-2,4,8,22-tetraazatetracyclo[14.3.1.1(3,7).1(9,13)]docosa-1(20),3(22),4,6,9(21),10,12,16,18-nonaen-12-yl]-N(1)-(1-methyl-1H-indol-4-yl)piperidine-1,4-dicarboxamide trifluoroacetate]: 58%, 157 nM, 12 nM, 102 nM and 5.8 nM.
The like results for `O=C(Nc1ccc2cc1CCc1cccc(c1)Nc1ncc(Cl)c(n1)N2)C1CCN(S(=O)(=O)c2ccccc2)CC1` [Example A42, N-[6-Chloro-2,4,8,22-tetraazatetracyclo[14.3.1.1(3,7).1(9,13)]docosa-1(20), 3(22),4,6,9(21),10,12,16,18-nonaen-12-yl]-1-(phenylsulfonyl)piperidine-4-carboxamide trifluoroacetate] were, in that order, 34%, 58 nM, 24 nM, 183 nM and 21 nM.
Consider `O=C(Nc1ccc2cc1CCc1cccc(c1)Nc1ncc(Cl)c(n1)N2)C1CCN(C(=S)Nc2ccccc2)CC1` [Example A43, 1-(Anilinocarbonothioyl)-N-[6-chloro-2,4,8,22-tetraazatetracyclo[14.3.1.1(3,7).1(9,13)]docosa-1(20),3(22),4,6,9(21),10,12,16,18-nonaen-12-yl]piperidine-4-carboxamide trifluoroacetate], for which the “ALK % of inhibition” value in experiment [1] was 32%. For the same compound, the half-inhibitory concentration (IC50) in experiment [2] was 36 nM; in experiment [3] it was 4.8 nM; against TYK2, 48 nM; in experiment [4] it was 1 nM.
Turning to `O=C(Nc1ccc2cc1CCc1cccc(c1)Nc1ncc(Cl)c(n1)N2)C1CCCNC1` (stereo not drawn) [Example A44, N-[6-Chloro-2,4,8,22-tetraazatetracyclo[14.3.1.1(3,7).1(9,13)]docosa-1(20), 3(22),4,6,9(21),10,12,16,18-nonaen-12-yl]piperidine-3-carboxamide bis(trifluoroacetate)], the “ALK % of inhibition” value in experiment [1] was 21%. The IC50 in experiment [2] is 71 nM; in experiment [3], 52 nM; against TYK2, 169 nM; in experiment [4], 26 nM.
As for `O=C(Nc1ccc2cc1CCc1cccc(c1)Nc1ncc(Cl)c(n1)N2)[C@@H]1CCNC1` [Example A45, (3R)—N-[6-chloro-2,4,8,22-tetraazatetracyclo[14.3.1.1(3,7).1(9,13)]docosa-1(20),3(22),4,6,9(21),10,12,16,18-nonaen-12-yl]pyrrolidine-3-carboxamide bis(trifluoroacetate)], in experiment [1], the “ALK % of inhibition” value is 29%. In addition, the half-inhibitory concentration (IC50) was found to be 31 nM in experiment [2], 20 nM in experiment [3], 39 nM against TYK2 and 9.6 nM in experiment [4].
The like results for `O=C(CC1CCNCC1)Nc1ccc2cc1CCc1cccc(c1)Nc1ncc(Cl)c(n1)N2` [Example A46, N-[6-Chloro-2,4,8,22-tetraazatetracyclo[14.3.1.1(3,7).1(9,13)]docosa-1(20), 3(22),4,6,9(21),10,12,16,18-nonaen-12-yl]-2-piperidin-4-ylacetamide bis(trifluoroacetate)] were, in that order, 20%, 49 nM, 16 nM, 42 nM and 10 nM.
The like results for `CC(=O)N1CCCC(C(=O)Nc2ccc3cc2CCc2cccc(c2)Nc2ncc(Cl)c(n2)N3)C1` (stereo not drawn) [Example A47, 1-Acetyl-N-[6-chloro-2,4,8,22-tetraazatetracyclo[14.3.1.1(3,7).1(9,13)]docosa-1(20),3(22),4,6,9(21),10,12,16,18-nonaen-12-yl]piperidine-3-carboxamide trifluoroacetate] were, in that order, 26%, 25 nM, 6.9 nM, 39 nM and 17 nM.
Consider `O=C(Nc1ccc2cc1CCc1cccc(c1)Nc1ncc(Cl)c(n1)N2)C1CCCN(C(=O)c2ccccc2)C1` (stereo not drawn) [Example A48, 1-Benzoyl-N-[6-chloro-2,4,8,22-tetraazatetracyclo[14.3.1.1(3,7).1(9,13)]docosa-1(20),3(22),4,6,9(21),10,12,16,18-nonaen-12-yl]piperidine-3-carboxamide trifluoroacetate], for which, in experiment [1], the “ALK % of inhibition” value came out at 28%. Further, the half-maximal inhibitory concentration (IC50) in experiment [2] was 56 nM; in experiment [3] it was 13 nM; on TYK2 it was 92 nM; in experiment [4], 27 nM.
For `CCNC(=O)N1CCCC(C(=O)Nc2ccc3cc2CCc2cccc(c2)Nc2ncc(Cl)c(n2)N3)C1` (stereo not drawn) [Example A49, N(3)-[6-Chloro-2,4,8,22-tetraazatetracyclo[14.3.1.1(3,7).1(9,13)]docosa-1(20),3(22),4,6,9(21),10,12,16,18-nonaen-12-yl]-N(1)-ethylpiperidine-1,3-dicarboxamide trifluoroacetate], the “ALK % of inhibition” value in experiment [1] came to 24%. Further, the half-inhibitory concentration (IC50) in experiment [2] was 11 nM; in experiment [3], 7.5 nM; at TYK2 it was 39 nM; in experiment [4], 14 nM.
The like results for `O=C(Nc1ccc2cc1CCc1cccc(c1)Nc1ncc(Cl)c(n1)N2)C1CCCN(C(=O)Nc2ccccc2)C1` (stereo not drawn) [Example A50, N(3)-[6-Chloro-2,4,8,22-tetraazatetracyclo[14.3.1.1(3,7).1(9,13)]docosa-1(20),3(22),4,6,9(21),10,12,16,18-nonaen-12-yl]-N(1)-phenylpiperidine-1,3-dicarboxamide trifluoroacetate] were, in that order, 37%, 13 nM, 6.5 nM, 21 nM and 2.4 nM.
For `CC(=O)N1CC[C@@H](C(=O)Nc2ccc3cc2CCc2cccc(c2)Nc2ncc(Cl)c(n2)N3)C1` [Example A51, (3R)-1-Acetyl-N-[6-chloro-2,4,8,22-tetraazatetracyclo[14.3.1.1(3,7).1(9,13)]docosa-1(20),3(22),4,6,9(21),10,12,16,18-nonaen-12-yl]pyrrolidine-3-carboxamide trifluoroacetate], in experiment [1], the “ALK % of inhibition” value came out at 30%. For the same compound, the concentration for half-maximal inhibition (IC50) in experiment [2] came to 10 nM; in experiment [3], 5 nM; against TYK2, 21 nM; in experiment [4] it was 13 nM.
Consider `O=C(Nc1ccc2cc1CCc1cccc(c1)Nc1ncc(Cl)c(n1)N2)[C@@H]1CCN(C(=O)c2ccccc2)C1` [Example A52, (3R)-1-Benzoyl-N-[6-chloro-2,4,8,22-tetraazatetracyclo[14.3.1.1(3,7).1(9,13)]docosa-1(20),3(22),4,6,9(21),10,12,16,18-nonaen-12-yl]pyrrolidine-3-carboxamide trifluoroacetate], for which, in experiment [1], the “ALK % of inhibition” value is given as 35%. Moreover, the IC50 was found to be 7.8 nM in experiment [2], 4.5 nM in experiment [3], 15 nM against TYK2 and 2.2 nM in experiment [4].
Turning to `CCNC(=O)N1CC[C@@H](C(=O)Nc2ccc3cc2CCc2cccc(c2)Nc2ncc(Cl)c(n2)N3)C1` [Example A53, (3R)—N(3)-[6-Chloro-2,4,8,22-tetraazatetracyclo[14.3.1.1(3,7).1(9,13)]docosa-1(20),3(22),4,6,9(21),10,12,16,18-nonaen-12-yl]-N(1)-ethylpyrrolidine-1,3-dicarboxamide trifluoroacetate], the “ALK % of inhibition” value in experiment [1] is 35%. In addition, the IC50 in experiment [2] stood at 3.2 nM; in experiment [3], 1.2 nM; against TYK2, 14 nM; in experiment [4], 6.1 nM.

The values are drawn from patent US8871753B2, “Macrocyclic compounds and their use as kinase inhibitors” (Incyte Corporation, priority 2008, dated 2014).
